According to article PMC10067855, “Sialidases and fucosidases of Akkermansia muciniphila are crucial for growth on mucin and nutrient sharing with mucus-associated gut bacteria” (Nature Communications, 2023):

How the values were obtained:
AmGH181 [1] = biological target: T1, AmGH181 (Akkermansia muciniphila, UniProt B2ULI1); assay: X-ray crystal structure; also inhibition of 4MU-Neu5Ac hydrolysis; assay type: biochemical; set-up: gene Amuc_1547; mature peptide lacking the signal peptide
T1 sequence (B2ULI1 23-595): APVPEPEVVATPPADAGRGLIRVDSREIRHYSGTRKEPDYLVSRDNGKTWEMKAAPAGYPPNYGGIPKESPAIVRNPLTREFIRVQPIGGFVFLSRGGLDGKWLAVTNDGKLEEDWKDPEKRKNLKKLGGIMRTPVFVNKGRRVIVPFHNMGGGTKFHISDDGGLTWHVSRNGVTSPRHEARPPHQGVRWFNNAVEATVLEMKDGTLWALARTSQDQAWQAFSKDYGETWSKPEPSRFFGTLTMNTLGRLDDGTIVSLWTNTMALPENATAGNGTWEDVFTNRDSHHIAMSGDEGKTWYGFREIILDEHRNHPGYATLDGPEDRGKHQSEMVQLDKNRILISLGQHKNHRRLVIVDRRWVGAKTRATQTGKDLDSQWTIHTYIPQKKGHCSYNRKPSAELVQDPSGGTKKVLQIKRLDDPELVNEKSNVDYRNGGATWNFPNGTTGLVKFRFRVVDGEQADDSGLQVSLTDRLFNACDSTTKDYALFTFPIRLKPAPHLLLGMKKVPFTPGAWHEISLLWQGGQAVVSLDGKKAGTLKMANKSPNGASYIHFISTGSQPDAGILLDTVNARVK
Source text: X-ray crystal structure; also inhibition of 4MU-Neu5Ac hydrolysis on AmGH181 | three structures of AmGH181: in ligand free form, bound with the transition-state inhibitor DANA

AmGH33A = biological target: T2, AmGH33A (Akkermansia muciniphila, UniProt B2UPI5); assay: inhibition of 4MU-Neu5Ac hydrolysis, fluorescence; assay type: biochemical
T2 construct: gene Amuc_0625; mature peptide lacking the signal peptide
T2 sequence (B2UPI5 39-419): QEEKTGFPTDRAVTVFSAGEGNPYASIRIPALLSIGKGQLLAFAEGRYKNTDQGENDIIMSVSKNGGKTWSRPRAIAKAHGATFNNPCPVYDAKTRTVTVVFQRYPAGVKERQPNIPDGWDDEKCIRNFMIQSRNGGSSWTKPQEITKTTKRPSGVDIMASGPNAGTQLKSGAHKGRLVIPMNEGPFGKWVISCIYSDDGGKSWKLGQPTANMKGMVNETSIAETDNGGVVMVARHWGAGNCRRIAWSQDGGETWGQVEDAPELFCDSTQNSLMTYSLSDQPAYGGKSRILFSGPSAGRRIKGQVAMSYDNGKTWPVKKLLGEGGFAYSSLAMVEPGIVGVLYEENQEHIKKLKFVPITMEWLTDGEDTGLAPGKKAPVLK

AmGH33B = biological target: T3, AmGH33B (Akkermansia muciniphila, UniProt B2UN42); assay: inhibition of 4MU-Neu5Ac hydrolysis, fluorescence; assay type: biochemical
T3 construct: gene Amuc_1835; mature peptide lacking the signal peptide
T3 sequence (B2UN42 19-674): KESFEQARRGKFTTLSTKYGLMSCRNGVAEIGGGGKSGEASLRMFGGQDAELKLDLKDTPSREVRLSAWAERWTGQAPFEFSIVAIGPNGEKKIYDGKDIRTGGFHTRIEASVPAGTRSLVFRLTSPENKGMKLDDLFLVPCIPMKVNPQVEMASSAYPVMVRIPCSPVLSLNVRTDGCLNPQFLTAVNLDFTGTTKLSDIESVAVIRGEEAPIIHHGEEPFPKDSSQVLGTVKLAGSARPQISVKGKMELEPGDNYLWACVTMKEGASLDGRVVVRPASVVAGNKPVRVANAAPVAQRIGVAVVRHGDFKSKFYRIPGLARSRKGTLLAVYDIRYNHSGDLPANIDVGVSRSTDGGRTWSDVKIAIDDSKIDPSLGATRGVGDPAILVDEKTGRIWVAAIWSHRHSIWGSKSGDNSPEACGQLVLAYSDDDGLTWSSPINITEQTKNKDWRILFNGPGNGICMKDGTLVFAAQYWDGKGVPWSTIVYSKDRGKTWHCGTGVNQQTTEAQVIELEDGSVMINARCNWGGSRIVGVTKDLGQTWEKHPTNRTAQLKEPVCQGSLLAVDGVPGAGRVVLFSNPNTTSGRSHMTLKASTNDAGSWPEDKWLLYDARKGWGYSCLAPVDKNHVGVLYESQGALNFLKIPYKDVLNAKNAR

AmGH181 [2] = biological target: T1, AmGH181; set-up: gene Amuc_1547

Row | SMILES | IC50 (AmGH181 [1]) [µM] | IC50 (AmGH33A) [µM] | IC50 (AmGH33B) [µM] | X-ray crystal structure (ternary with DANA) (AmGH181 [2])
1 | CC(=O)N[C@H]1[C@H]([C@H](O)[C@H](O)CO)OC(C(=O)O)=C[C@@H]1O [DANA, N-Acetyl-2,3-dehydro-2-deoxyneuraminic acid] | < 200 | < 200 | < 200 | 
2 | CC(=O)N[C@H]1C(O)O[C@H](CO)[C@H](O)[C@@H]1O[C@@H]1O[C@H](CO)[C@H](O)[C@H](O)[C@H]1O (stereo partly shown) [GNB, Galacto-N-biose] |  |  |  | bound to both the T-antigen disaccharide (GNB) and DANA, which provides a mimic for a transition state-like substrate complex
